Tested on: HCT116 cells
Experiment: HCT116 cytotoxic activity assay (Alamar Blue, 72 h)
Assay type: cell-based
Conditions: Homo sapiens, HCT-116, 72 h compound exposure
Description: Representative compounds of this invention were tested for cytotoxicity using the above-described assay procedure with the following results: […]

[1] = greater than 500 nM but less than or equal to 2 μM

Row | SMILES | IC50 [1] [nM] | IC50 (less than or equal to 500 nM) [nM] | also measured
1 | NC(=O)c1cc(Oc2cccc(Nc3cc(-c4ccc(Cl)c(Cl)c4)nc(N)n3)c2)ccn1 [Example 303, 4-(3-{[2-amino-6-(3,4-dichlorophenyl)pyrimidin-4-yl]amino}phenoxy)pyridine-2-carboxamide] |  |  | IC50 (greater than 2 μM): > 2000 nM
2 | Cc1cc(Oc2ccc(Nc3cc(-c4ccc(Oc5ccccc5)cc4)nc(N)n3)cc2)ccn1 [Example 304, N4*-{4-[(2-methylpyridin-4-yl)oxy]phenyl}-6-(4-phenoxyphenyl) pyrimidine-2,4-diamine] | 500 to 2000 |  | 
3 | Cc1cc(Oc2ccc(Nc3cc(-c4cccc(N(C)C)c4)nc(N)n3)cc2)ccn1 [Example 305, 6-[3-(dimethylamino)phenyl]-N4*- {4-[(2-methylpyridin-4-yl)oxy]phenyl}pyrimidine-2,4-diamine] |  | ≤ 500 | 
4 | Cc1cc(Oc2ccc(Nc3cc(-c4cccc(O)c4)nc(N)n3)cc2)ccn1 [Example 306, 3-[2-amino-6-({4-[(2-methylpyridin-4-yl)oxy]phenyl}amino)pyrimidin-4-yl]phenol] | 500 to 2000 |  | 
5 | Cc1cc(Oc2ccc(Nc3cc(-c4ccc(OC(F)(F)F)cc4)nc(N)n3)cc2)ccn1 [Example 307, N4*-{4-[(2-methylpyridin-4-yl)oxy]phenyl}-6-[4-(trifluoromethoxy)phenyl]pyrimidine-2,4-diamine] |  |  | IC50 (greater than 2 μM): > 2000 nM
6 | CC(=O)Nc1ccc(-c2cc(Nc3ccc(Oc4ccnc(C)c4)cc3)nc(N)n2)cc1 [Example 308, N-{4-[2-amino-6-({4-[(2-methylpyridin-4-yl)oxy]phenyl}amino)pyrimidin-4-yl]phenyl} acetamide] | 500 to 2000 |  | 
7 | Cc1cc(Oc2ccc(Nc3cc(-c4ccccc4OC(F)(F)F)nc(N)n3)cc2)ccn1 [Example 309, N4-{4-[(2-methylpyridin-4-yl)oxy]phenyl}-6-[2-(trifluoromethoxy)phenyl]pyrimidine-2,4-diamine] | 500 to 2000 |  | 
8 | Cc1cc(Oc2ccc(Nc3cc(-c4ccc(O)cc4)nc(N)n3)cc2)ccn1 [Example 310, 4-[2-amino-6-({4-[(2-methylpyridin-4-yl)oxy]phenyl}amino)pyrimidin-4-yl]phenol] |  | ≤ 500 | 
9 | COc1ccc(-c2cc(Nc3ccc(Oc4ccnc(C)c4)cc3)nc(N)n2)cn1 [Example 312, 6-(6-methoxypyridin-3-yl)-N4*-{4-[(2-methylpyridin-4-yl)oxy]phenyl} pyrimidine-2,4-diamine] |  | ≤ 500 | 
10 | Cc1cc(Oc2ccc(Nc3cc(-c4ccc(N)cc4)nc(N)n3)cc2)ccn1 [Example 313, 6-(4-aminophenyl)-N4*-{4-[(2-methylpyridin-4-yl)oxy]phenyl} pyrimidine-2,4-diamine] |  | ≤ 500 | 
11 | Cc1cc(Oc2ccc(Nc3cc(-c4cccc(C(F)(F)F)c4)nc(N)n3)cc2)ccn1 [Example 314, N4*-{4-[(2-methylpyridin-4-yl)oxy]phenyl}-6-[3-(trifluoromethyl)phenyl] pyrimidine-2,4-diamine] |  |  | IC50 (greater than 2 μM): > 2000 nM
12 | Cc1cc(Oc2ccc(Nc3cc(-c4cccc(F)c4)nc(N)n3)cc2)ccn1 [Example 315, 6-(3-fluorophenyl)-N4*-{4-[(2-methylpyridin-4-yl)oxy]phenyl} pyrimidine-2,4-diamine] |  | ≤ 500 | 
13 | COc1cccc(-c2cc(Nc3ccc(Oc4ccnc(C)c4)cc3)nc(N)n2)c1 [Example 316, 6-(3-methoxyphenyl)-N4*-{4-[(2-methylpyridin-4-yl)oxy]phenyl} pyrimidine-2,4-diamine] |  | ≤ 500 | 
14 | CCc1ccc(-c2cc(Nc3ccc(Oc4ccnc(C)c4)cc3)nc(N)n2)cc1 [Example 317, 6-(4-ethylphenyl)-N4*-{4-[(2-methylpyridin-4-yl)oxy]phenyl} pyrimidine-2,4-diamine] |  | ≤ 500 | 
15 | Cc1cc(Oc2ccc(Nc3cc(-c4ccc(N(C)C)cc4)nc(N)n3)cc2)ccn1 [Example 318, 6-[4-(dimethylamino)phenyl]-N4*- {4-[(2-methylpyridin-4-yl)oxy]phenyl}pyrimidine-2,4-diamine] |  | ≤ 500 | 
16 | COc1ccc(-c2cc(Nc3ccc(Oc4ccnc(C)c4)cc3)nc(N)n2)cc1OC [Example 319, 6-(3,4-dimethoxyphenyl)-N4*-{4-[(2-methylpyridin-4-yl)oxy]phenyl} pyrimidine-2,4-diamine] | 500 to 2000 |  | 

Reference: patent publication US7582645B2, “Pyrimidine derivatives for treatment of hyperproliferative disorders” (Bayer Pharmaceuticals Corporation, priority 2003, dated 2009)
